Data reported in patent publication US20240210394A1, “MICROORGANISM CAPTURE FROM ANTIMICROBIAL-CONTAINING SOLUTION” (MOMENTUM BIOSCIENCE LIMITED, priority 2019, published 2024).

Test system: E. coli
Assay: Blood culture time to positivity (flip time), bead rescue vs no-rescue control
Format: cell-based
Conditions: Piperacillin 96 ug/mL blood; for Flip time in Days: No bead rescue Control BC; for Time to positivity in days: 1800 cfu/5 ml

CCN1CCN(C(=O)N[C@@H](C(=O)N[C@@H]2C(=O)N3[C@@H]2SC(C)(C)[C@@H]3C(=O)O)c2ccccc2)C(=O)C1=O [Piperacillin]
Neg: Flip time in Days (50000 cfu/5 mL) | Flip time in Days (150000 cfu/5 mL) | Time to positivity in days (Control (no beads)) | Time to positivity in days (with magnetic beads in the bottle)
